Measurements taken from ChEMBL document CHEMBL1158147, “Ultraviolet-mediated cytotoxic activity of phenylheptatriyne from Bidens pilosa L” (J Nat Prod, 1979).
The source made the active and inactive calls. The rule behind the calls is not given here.

Experiments:
[1] = test system: Saccharomyces cerevisiae; assay: Phototoxicity against Saccharomyces cerevisiae at 2.5 ug/disk after UV irradiation for 180 mins; format: functional, organism-based
[2] = test system: Bacillus subtilis; assay: Phototoxicity against Bacillus subtilis at 5 ug/disk in presence of long wave UV light; format: functional, organism-based
[3] = test system: Bacillus subtilis; assay: Phototoxicity against Bacillus subtilis at 5 ug/disk in dark; format: functional, organism-based
[4] = test system: Kocuria rosea; assay: Phototoxicity against Micrococcus roseus UBC 289 at 5 ug/disk in presence of cool-white fluorescent light; format: functional, organism-based
[5] = test system: Kocuria rosea; assay: Phototoxicity against Micrococcus roseus UBC 289 at 5 ug/disk in dark; format: functional, organism-based
[6] = test system: Staphylococcus epidermidis; assay: Phototoxicity against Staphylococcus albus at 5 ug/disk in presence of long wave UV light; format: functional, organism-based
[7] = test system: Staphylococcus epidermidis; assay: Phototoxicity against Staphylococcus albus at 5 ug/disk in presence of cool-white fluorescent light; format: functional, organism-based
[8] = test system: Staphylococcus epidermidis; assay: Phototoxicity against Staphylococcus albus at 5 ug/disk in dark; format: functional, organism-based
[9] = test system: Enterococcus faecalis; assay: Phototoxicity against Streptococcus faecalis at 5 ug/disk in presence of cool-white fluorescent light; format: functional, organism-based
[10] = test system: Escherichia coli; assay: Phototoxicity against Escherichia coli at 5 ug/disk in presence of long wave UV light; format: functional, organism-based
[11] = test system: Escherichia coli; assay: Phototoxicity against Escherichia coli at 5 ug/disk in dark; format: functional, organism-based
[12] = test system: Proteus mirabilis; assay: Phototoxicity against Proteus mirabilis UBC 5 at 5 ug/disk in presence of long wave UV light; format: functional, organism-based
[13] = test system: Proteus mirabilis; assay: Phototoxicity against Proteus mirabilis UBC 5 at 5 ug/disk in presence of cool-white fluorescent light; format: functional, organism-based
[14] = test system: Proteus mirabilis; assay: Phototoxicity against Proteus mirabilis UBC 5 at 5 ug/disk in dark; format: functional, organism-based
[15] = test system: Pseudomonas fluorescens; assay: Phototoxicity against Pseudomonas fluorescens at 5 ug/disk in presence of cool-white fluorescent light; format: functional, organism-based
[16] = test system: Pseudomonas fluorescens; assay: Phototoxicity against Pseudomonas fluorescens at 5 ug/disk in dark; format: functional, organism-based
[17] = test system: Candida albicans; assay: Phototoxicity against Candida albicans at 5 ug/disk in presence of long wave UV light; format: functional, organism-based
[18] = test system: Candida albicans; assay: Phototoxicity against Candida albicans at 5 ug/disk in dark; format: functional, organism-based
[19] = test system: Saccharomyces cerevisiae; assay: Phototoxicity against Saccharomyces cerevisiae at 5 ug/disk in dark; format: functional, organism-based
[20] = test system: Sporobolomyces; assay: Phototoxicity against Sporobolomyces sp. Y138 at 5 ug/disk in presence of cool-white fluorescent light; format: functional, organism-based
[21] = test system: Sporobolomyces; assay: Phototoxicity against Sporobolomyces sp. Y138 at 5 ug/disk in dark; format: functional, organism-based
[22] = test system: Torula; assay: Phototoxicity against Torula sp. at 5 ug/disk in presence of long wave UV light; format: functional, organism-based
[23] = test system: Torula; assay: Phototoxicity against Torula sp. at 5 ug/disk in dark; format: functional, organism-based
[24] = test system: Fusarium sp.; assay: Phototoxicity against Fusarium sp. at 5 ug/disk in presence of cool-white fluorescent light; format: functional, organism-based
[25] = test system: Fusarium sp.; assay: Phototoxicity against Fusarium sp. at 5 ug/disk in dark; format: functional, organism-based
[26] = test system: Microsporum canis; assay: Phototoxicity against Microsporum canis at 5 ug/disk in presence of long wave UV light; format: functional, organism-based
[27] = test system: Microsporum canis; assay: Phototoxicity against Microsporum canis at 5 ug/disk in presence of cool-white fluorescent light; format: functional, organism-based
[28] = test system: Microsporum canis; assay: Phototoxicity against Microsporum canis at 5 ug/disk in dark; format: functional, organism-based
[29] = test system: Paraphyton cookei; assay: Phototoxicity against Microsporum cookei at 5 ug/disk in presence of cool-white fluorescent light; format: functional, organism-based
[30] = test system: Nannizzia gypsea; assay: Phototoxicity against Microsporum gypseum at 5 ug/disk in presence of long wave UV light; format: functional, organism-based
[31] = test system: Trichophyton mentagrophytes; assay: Phototoxicity against Trichophyton mentagrophytes at 5 ug/disk in presence of cool-white fluorescent light; format: functional, organism-based
[32] = test system: Saccharomyces cerevisiae; assay: Effect on Saccharomyces cerevisiae assessed as viable cell count at 10 ug/ml in petroleum ether after 1.33 Joules/cm'2 UV irradiation for 15 mins; format: functional
[33] = test system: Saccharomyces cerevisiae; assay: Effect on Saccharomyces cerevisiae assessed as viable cell count at 10 ug/ml in petroleum ether after 5.33 Joules/cm'2 UV irradiation for 60 mins; format: functional
[34] = test system: Saccharomyces cerevisiae; assay: Effect on Saccharomyces cerevisiae assessed as viable cell count at 10 ug/ml in petroleum ether after 16 Joules/cm'2 UV irradiation for 180 mins; format: functional
[35] = test system: Saccharomyces cerevisiae; assay: Effect on Saccharomyces cerevisiae assessed as viable cell count at 10 ug/ml in petroleum ether in dark after 15 mins; format: functional
[36] = test system: Saccharomyces cerevisiae; assay: Effect on Saccharomyces cerevisiae assessed as viable cell count at 10 ug/ml in petroleum ether in dark after 30 mins; format: functional
[37] = test system: Saccharomyces cerevisiae; assay: Effect on Saccharomyces cerevisiae assessed as viable cell count at 10 ug/ml in petroleum ether in dark after 60 mins; format: functional
[38] = test system: Saccharomyces cerevisiae; assay: Effect on Saccharomyces cerevisiae assessed as viable cell count at 10 ug/ml in petroleum ether in dark after 180 mins; format: functional
[39] = Effect on human skin fibroblast cells assessed as viable cell count at 10 ug/ml in petroleum ether after 1.78 Joules/cm UV irradiation for 20 mins by trypan blue exclusion method; format: ADME, cell-based; details: read-out: Activity
[40] = Effect on human skin fibroblast cells assessed as viable cell count at 10 ug/ml in petroleum ether after 3.53 Joules/cm UV irradiation for 40 mins by trypan blue exclusion method; format: ADME, cell-based; details: read-out: Activity
[41] = Effect on human skin fibroblast cells assessed as viable cell count at 10 ug/ml in petroleum ether after 5.33 Joules/cm UV irradiation for 60 mins by trypan blue exclusion method; format: ADME, cell-based; details: read-out: Activity
[42] = Effect on human skin fibroblast cells assessed as viable cell count at 10 ug/ml in petroleum ether after 8.00 Joules/cm UV irradiation for 90 mins by trypan blue exclusion method; format: ADME, cell-based; details: read-out: Activity
[43] = Effect on human skin fibroblast cells assessed as viable cell count at 10 ug/ml in petroleum ether after 10.67 Joules/cm UV irradiation for 120 mins by trypan blue exclusion method; format: ADME, cell-based; details: read-out: Activity
[44] = Effect on human skin fibroblast cells assessed as viable cell count at 10 ug/ml in petroleum ether in dark after 60 mins by trypan blue exclusion method; format: ADME, cell-based; details: read-out: Activity
[45] = test system: Saccharomyces cerevisiae; assay: Phototoxicity against Saccharomyces cerevisiae at 2.5 ug/disk after UV irradiation for 15 mins; format: functional; details: light or radiation study, 0.25 h, read-out: IZ
[46] = test system: DNA; assay: Photochemical activity against denatured calf thymus DNA at 10 ug by hyperchromicity test; format: nucleic-acid assay; details: Bos taurus
[47] = test system: DNA; assay: Photochemical activity against denatured calf thymus DNA 10 ug after UV irradiation with 2.67 Joules/cm'2 for 30 mins at by hyperchromicity test; format: nucleic-acid assay; details: Bos taurus
[48] = test system: DNA; assay: Photochemical activity against denatured calf thymus DNA at 10 ug after UV irradiation with 5.33 Joules/cm'2 for 60 mins by hyperchromicity test; format: nucleic-acid assay; details: Bos taurus
[49] = test system: DNA; assay: Photochemical activity against denatured calf thymus DNA at 10 ug after UV irradiation with 10.67 Joules/cm'2 for 120 mins by hyperchromicity test; format: nucleic-acid assay; details: Bos taurus; also: unit not given here
[50] = test system: DNA; assay: Photochemical activity against denatured calf thymus DNA at 10 ug in dark after 30 mins by hyperchromicity test; format: nucleic-acid assay; details: Bos taurus
[51] = test system: DNA; assay: Photochemical activity against denatured calf thymus DNA at 10 ug in dark after 60 mins by hyperchromicity test; format: nucleic-acid assay; details: Bos taurus; also: unit not given here
[52] = test system: DNA; assay: Photochemical activity against denatured calf thymus DNA at in dark after 120 mins by hyperchromicity test; format: nucleic-acid assay; details: Bos taurus; also: unit not given here
[53] = test system: Candida albicans; assay: Phototoxicity against Candida albicans at 2.5 ug/disk after UV irradiation for 30 mins; format: functional, organism-based

**Q.** With `CC#CC#CC#Cc1ccccc1` [PHENYLHEPTATRIYNE] as the compound, how does the Activity [1] read?
**A.** The Activity was “inactive”.

**Q.** What about the Activity [2] of the same compound?
**A.** The Activity was “Active”.

**Q.** What about the Activity [3] of the same compound?
**A.** Its Activity is “inactive”.

**Q.** What about the Activity [4] of the same compound?
**A.** Its Activity is “Active”.

**Q.** And the Activity [5]?
**A.** The Activity was “inactive”.

**Q.** And the Activity [6]?
**A.** Its Activity is “Active”.

**Q.** What about the Activity [7] of the same compound?
**A.** The Activity was “Active”.

**Q.** And the Activity [8]?
**A.** The Activity was “inactive”.

**Q.** And the Activity [9]?
**A.** The Activity was “Active”.

**Q.** What about the Activity [10] of the same compound?
**A.** Its Activity is “Active”.

**Q.** And the Activity [11]?
**A.** Its Activity is “inactive”.

**Q.** And the Activity [12]?
**A.** The Activity was “Active”.

**Q.** What about the Activity [13] of the same compound?
**A.** Its Activity is “inactive”.

**Q.** What about the Activity [14] of the same compound?
**A.** Its Activity is “inactive”.

**Q.** And the Activity [15]?
**A.** Its Activity is “inactive”.

**Q.** What about the Activity [16] of the same compound?
**A.** Its Activity is “inactive”.

**Q.** What about the Activity [17] of the same compound?
**A.** Its Activity is “Active”.

**Q.** And the Activity [18]?
**A.** The Activity was “inactive”.

**Q.** What about the Activity [19] of the same compound?
**A.** Its Activity is “inactive”.

**Q.** And the Activity [20]?
**A.** Its Activity is “Active”.

**Q.** What about the Activity [21] of the same compound?
**A.** Its Activity is “inactive”.

**Q.** And the Activity [22]?
**A.** Its Activity is “Active”.

**Q.** And the Activity [23]?
**A.** The Activity was “inactive”.

**Q.** And the Activity [24]?
**A.** Its Activity is “Active”.

**Q.** What about the Activity [25] of the same compound?
**A.** The Activity was “inactive”.

**Q.** What about the Activity [26] of the same compound?
**A.** Its Activity is “Active”.

**Q.** What about the Activity [27] of the same compound?
**A.** Its Activity is “Active”.

**Q.** What about the Activity [28] of the same compound?
**A.** The Activity was “inactive”.

**Q.** What about the Activity [29] of the same compound?
**A.** Its Activity is “Active”.

**Q.** And the Activity [30]?
**A.** Its Activity is “Active”.

**Q.** What about the Activity [31] of the same compound?
**A.** Its Activity is “Active”.

**Q.** And the Activity [32]?
**A.** The Activity was 2.57.

**Q.** What about the Activity [33] of the same compound?
**A.** The Activity was 0.

**Q.** What about the Activity [34] of the same compound?
**A.** The Activity was 0.

**Q.** What about the Activity [35] of the same compound?
**A.** The Activity was 24.2.

**Q.** And the Activity [36]?
**A.** Its Activity is 35.8.

**Q.** What about the Activity [37] of the same compound?
**A.** Its Activity is 48.3.

**Q.** And the Activity [38]?
**A.** The Activity was 53.5.

**Q.** What about the viability at 20 min, 10 ug/ml [39] of the same compound?
**A.** The viability at 20 min, 10 ug/ml was 95%.

**Q.** What about the viability at 40 min, 10 ug/ml [40] of the same compound?
**A.** The viability at 40 min, 10 ug/ml was 50%.

**Q.** And the viability at 1 h, 10 ug/ml [41]?
**A.** The viability at 1 h, 10 ug/ml was 0%.

**Q.** What about the viability at 1.5 h, 10 ug/ml [42] of the same compound?
**A.** Its viability at 1.5 h, 10 ug/ml is 0%.

**Q.** What about the viability at 2 h, 10 ug/ml [43] of the same compound?
**A.** Its viability at 2 h, 10 ug/ml is 0%.

**Q.** And the viability at 1 h, 10 ug/ml [44]?
**A.** Its viability at 1 h, 10 ug/ml is 100%.

**Q.** What about the zone of inhibition at 2.5 µg/disc [45] of the same compound?
**A.** The zone of inhibition at 2.5 µg/disc was 10 mm.

**Q.** And the Activity [46]?
**A.** The Activity was 0.18.

**Q.** What about the Activity [47] of the same compound?
**A.** Its Activity is 0.03.

**Q.** What about the Activity [48] of the same compound?
**A.** Its Activity is 0.02.

**Q.** What about the Activity [49] of the same compound?
**A.** The Activity was 0.01.

**Q.** And the Activity [50]?
**A.** The Activity was 0.17.

**Q.** And the Activity [51]?
**A.** The Activity was 0.18.

**Q.** And the Activity [52]?
**A.** Its Activity is 0.19.

**Q.** And the Activity [53]?
**A.** The Activity was “inactive”.
